# Measured values published in US20220112479A1, “COMPOUNDS STABILIZING AMYLASES IN LIQUIDS” (BASF SE, priority 2018, published 2022).
# Key:
# Assay type in all cases: biochemical
# Amy1=Stainzyme = experiment: amylase storage stability in liquid formulation (pNP release from Ethyliden-blocked-pNPG7); design: key: % of activity in reference formulation at time 0; settings: storage at 37° C.
# Experimental: (§1) The storage stability of amylase was assessed at 37° C. Base test formulations were manufactured by making base formulations I to V by mixing the components according to Table 1. Amylases used: Amy1=Stainzyme, Amy2=Amplify, Amy3=Stainzyme Plus L (12L) The respective component (a) or comparative compound was added, if applicable, to the respective base formulation in amounts as indicated in Table 1. The amount of amylase as provided in Table 1 refers to active protein. Water was added to accomplish the balance to 100. […] Amylase activity at certain points in time as indicated in Table 2 was measured quantitatively by the release of the chromophore para-nitrophenol (pNP) from the substrate ([…]-blocked-pNPG7, Roche Applied Science 10880078103). The alpha-amylase degrades the substrate into smaller molecules and α-glucosidase (Roche Applied Science 11626329103), which is present in excess compared to the amylase, process these smaller products until pNP is released; the release of pNP, measured via an increase of absorption at 405 nm, is directly proportional to the amylase activity of the sample. Amylase standard: […] 120 L (Sigma 3403). […] The amylolytic activity values provided were calculated referring to the value determined in the reference formulation at the time 0. The nomenclature of formulations is as follows: the Roman number before the full stop characterizes the base formulation, the Arabian number the type of compound (A.# compound according to invention (component (a)); B.# comparative compound).
# Savinase Ultra 16.0L = biological target: T1, Savinase Ultra 16.0L (Lederbergia lenta, UniProt P29600); experiment: protease storage stability in liquid formulation (Suc-AAPF-pNA substrate); settings: storage at 37° C.
# T1 construct: purchased Sigma-Aldrich
# T1 sequence (P29600 1-269): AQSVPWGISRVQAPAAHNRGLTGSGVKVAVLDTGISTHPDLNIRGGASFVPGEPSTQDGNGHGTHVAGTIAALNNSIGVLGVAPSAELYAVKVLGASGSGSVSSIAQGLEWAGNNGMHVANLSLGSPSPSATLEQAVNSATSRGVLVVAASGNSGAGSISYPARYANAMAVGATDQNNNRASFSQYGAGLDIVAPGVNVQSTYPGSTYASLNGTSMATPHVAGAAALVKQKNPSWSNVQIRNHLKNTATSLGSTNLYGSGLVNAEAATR
# Experimental: Base test formulations were manufactured by making base formulations I to V by mixing the components according to Table 1.
# Protease used: (S) Savinase Ultra 16.0L (CAS-No. 9014-01-1, EC-No. 232-752-2) was purchased from Sigma-Aldrich
# The respective component (a) or comparative compound was added, if applicable, to the respective base formulation in amounts as indicated in Table 1.
# The amount of protease as provided in Table 1 refers to active protein.
# Water was added to accomplish the balance to 100.
# Protease activity at certain points in time as indicated in Table 3 was be determined by employing Succinyl-Ala-Ala-Pro-Phe-p-nitroanilide (Suc-AAPF-pNA, short AAPF) as substrate. pNA is cleaved from the substrate molecule by proteolytic cleavage, resulting in release of yellow color of free pNA which was determined by measuring […]. Measurements were done at 20° C.
# The proteolytic activity values provided in Table 3 were calculated referring to the value determined in the reference formulation at the time 0.
# The nomenclature of formulations is as follows: the Roman number before the full stop characterizes the base formulation, the Arabian number the type of salt (A.#inventive salt (component (a)); B.# comparative compound). Zero (“0”): no salt, but diethylene glycol.
# Amy2=Amplify = experiment: amylase storage stability in liquid formulation (pNP release from Ethyliden-blocked-pNPG7); design: key: % of activity in reference formulation at time 0; settings: base formulation III., 1.5 wt % component (a), storage at 37° C.
# Experimental: as §1
# [1] = base formulation IV., 2.0 wt % component (a), 3 d
# [2] = base formulation IV., 2.0 wt % component (a), 7 d
# [3] = base formulation IV., 2.0 wt % component (a), 14 d
# [4] = base formulation IV., 2.0 wt % component (a), 21 d
# [5] = base formulation IV., 2.0 wt % component (a), 28 d
# [6] = base formulation IV., 2.0 wt % component (a), 42 d
# [7] = base formulation IV., 2.0 wt % component (a), T0
# [8] = base formulation I., 1.5 wt % component (a), 3 d
# [9] = base formulation I., 1.5 wt % component (a), 7 d
# [10] = base formulation I., 1.5 wt % component (a), 14 d
# [11] = base formulation I., 1.5 wt % component (a), 21 d
# [12] = base formulation I., 1.5 wt % component (a), 28 d
# [13] = base formulation I., 1.5 wt % component (a), 42 d
# [14] = base formulation I., 1.5 wt % component (a), T0
# [15] = base formulation III., 1.5 wt % component (a), 3 d
# [16] = base formulation III., 1.5 wt % component (a), 7 d
# [17] = base formulation III., 1.5 wt % component (a), 14 d
# [18] = base formulation III., 1.5 wt % component (a), 21 d
# [19] = base formulation III., 1.5 wt % component (a), 28 d
# [20] = base formulation III., 1.5 wt % component (a), 42 d
# [21] = base formulation III., 1.5 wt % component (a), T0
molecule,measurement,setting,value
"CCCCOC(=O)CC(O)(CC(=O)OCCCC)C(=O)OCCCC [A.3, Tributylcitrate]","amylase activity, referring to reference formulation at time 0",Amy1=Stainzyme; [1],95
same,"amylase activity, referring to reference formulation at time 0",Amy1=Stainzyme; [2],90
same,"amylase activity, referring to reference formulation at time 0",Amy1=Stainzyme; [3],84
same,"amylase activity, referring to reference formulation at time 0",Amy1=Stainzyme; [4],77
same,"amylase activity, referring to reference formulation at time 0",Amy1=Stainzyme; [5],68
same,"amylase activity, referring to reference formulation at time 0",Amy1=Stainzyme; [6],57
same,"amylase activity, referring to reference formulation at time 0",Amy1=Stainzyme; [7],98
same,"protease activity, referring to reference formulation at time 0",Savinase Ultra 16.0L; [1],98
same,"protease activity, referring to reference formulation at time 0",Savinase Ultra 16.0L; [2],90
same,"protease activity, referring to reference formulation at time 0",Savinase Ultra 16.0L; [3],85
same,"protease activity, referring to reference formulation at time 0",Savinase Ultra 16.0L; [4],78
same,"protease activity, referring to reference formulation at time 0",Savinase Ultra 16.0L; [5],70
same,"protease activity, referring to reference formulation at time 0",Savinase Ultra 16.0L; [6],67
same,"protease activity, referring to reference formulation at time 0",Savinase Ultra 16.0L; [7],99
"CCCCOC(=O)CC(CC(=O)OCCCC)(OC(C)=O)C(=O)OCCCC [A.4, Acetyltributylcitrate]","protease activity, referring to reference formulation at time 0",Savinase Ultra 16.0L; [8],100
same,"protease activity, referring to reference formulation at time 0",Savinase Ultra 16.0L; [9],94
same,"protease activity, referring to reference formulation at time 0",Savinase Ultra 16.0L; [10],90
same,"protease activity, referring to reference formulation at time 0",Savinase Ultra 16.0L; [11],84
same,"protease activity, referring to reference formulation at time 0",Savinase Ultra 16.0L; [12],82
same,"protease activity, referring to reference formulation at time 0",Savinase Ultra 16.0L; [13],70
same,"protease activity, referring to reference formulation at time 0",Savinase Ultra 16.0L; [14],102
same,"protease activity, referring to reference formulation at time 0","Savinase Ultra 16.0L; base formulation II., 1.5 wt % component (a), 3 d",100
same,"protease activity, referring to reference formulation at time 0","Savinase Ultra 16.0L; base formulation II., 1.5 wt % component (a), 7 d",95
same,"protease activity, referring to reference formulation at time 0","Savinase Ultra 16.0L; base formulation II., 1.5 wt % component (a), 14 d",90
same,"protease activity, referring to reference formulation at time 0","Savinase Ultra 16.0L; base formulation II., 1.5 wt % component (a), 21 d",85
same,"protease activity, referring to reference formulation at time 0","Savinase Ultra 16.0L; base formulation II., 1.5 wt % component (a), 28 d",81
same,"protease activity, referring to reference formulation at time 0","Savinase Ultra 16.0L; base formulation II., 1.5 wt % component (a), 42 d",70
same,"protease activity, referring to reference formulation at time 0","Savinase Ultra 16.0L; base formulation II., 1.5 wt % component (a), T0",102
same,"protease activity, referring to reference formulation at time 0",Savinase Ultra 16.0L; [15],99
same,"protease activity, referring to reference formulation at time 0",Savinase Ultra 16.0L; [16],95
same,"protease activity, referring to reference formulation at time 0",Savinase Ultra 16.0L; [17],91
same,"protease activity, referring to reference formulation at time 0",Savinase Ultra 16.0L; [18],86
same,"protease activity, referring to reference formulation at time 0",Savinase Ultra 16.0L; [19],81
same,"protease activity, referring to reference formulation at time 0",Savinase Ultra 16.0L; [20],70
same,"protease activity, referring to reference formulation at time 0",Savinase Ultra 16.0L; [21],101
same,"protease activity, referring to reference formulation at time 0","Savinase Ultra 16.0L; base formulation V., 2.0 wt % component (a), 3 d",94
same,"protease activity, referring to reference formulation at time 0","Savinase Ultra 16.0L; base formulation V., 2.0 wt % component (a), 7 d",90
same,"protease activity, referring to reference formulation at time 0","Savinase Ultra 16.0L; base formulation V., 2.0 wt % component (a), 14 d",85
same,"protease activity, referring to reference formulation at time 0","Savinase Ultra 16.0L; base formulation V., 2.0 wt % component (a), 21 d",80
same,"protease activity, referring to reference formulation at time 0","Savinase Ultra 16.0L; base formulation V., 2.0 wt % component (a), 28 d",76
same,"protease activity, referring to reference formulation at time 0","Savinase Ultra 16.0L; base formulation V., 2.0 wt % component (a), 42 d",68
same,"protease activity, referring to reference formulation at time 0","Savinase Ultra 16.0L; base formulation V., 2.0 wt % component (a), T0",98
Monoethylcitrate [A.6],"amylase activity, referring to reference formulation at time 0",Amy1=Stainzyme; [8],95
same,"amylase activity, referring to reference formulation at time 0",Amy1=Stainzyme; [9],84
same,"amylase activity, referring to reference formulation at time 0",Amy1=Stainzyme; [10],79
same,"amylase activity, referring to reference formulation at time 0",Amy1=Stainzyme; [11],70
same,"amylase activity, referring to reference formulation at time 0",Amy1=Stainzyme; [12],61
same,"amylase activity, referring to reference formulation at time 0",Amy1=Stainzyme; [13],48
same,"amylase activity, referring to reference formulation at time 0",Amy1=Stainzyme; [14],98
same,"amylase activity, referring to reference formulation at time 0",Amy2=Amplify; 3 d,96
same,"amylase activity, referring to reference formulation at time 0",Amy2=Amplify; 7 d,90
same,"amylase activity, referring to reference formulation at time 0",Amy2=Amplify; 14 d,83
same,"amylase activity, referring to reference formulation at time 0",Amy2=Amplify; 21 d,74
same,"amylase activity, referring to reference formulation at time 0",Amy2=Amplify; 28 d,63
same,"amylase activity, referring to reference formulation at time 0",Amy2=Amplify; 42 d,49
same,"amylase activity, referring to reference formulation at time 0",Amy2=Amplify; T0,97
same,"protease activity, referring to reference formulation at time 0",Savinase Ultra 16.0L; [8],94
same,"protease activity, referring to reference formulation at time 0",Savinase Ultra 16.0L; [9],90
same,"protease activity, referring to reference formulation at time 0",Savinase Ultra 16.0L; [10],81
same,"protease activity, referring to reference formulation at time 0",Savinase Ultra 16.0L; [11],73
same,"protease activity, referring to reference formulation at time 0",Savinase Ultra 16.0L; [12],67
same,"protease activity, referring to reference formulation at time 0",Savinase Ultra 16.0L; [13],56
same,"protease activity, referring to reference formulation at time 0",Savinase Ultra 16.0L; [14],100
same,"protease activity, referring to reference formulation at time 0",Savinase Ultra 16.0L; [15],94
same,"protease activity, referring to reference formulation at time 0",Savinase Ultra 16.0L; [16],90
same,"protease activity, referring to reference formulation at time 0",Savinase Ultra 16.0L; [17],84
same,"protease activity, referring to reference formulation at time 0",Savinase Ultra 16.0L; [18],78
same,"protease activity, referring to reference formulation at time 0",Savinase Ultra 16.0L; [19],70
same,"protease activity, referring to reference formulation at time 0",Savinase Ultra 16.0L; [20],62
same,"protease activity, referring to reference formulation at time 0",Savinase Ultra 16.0L; [21],100
